In patent publication US20200017496A1 (priority 2017, published 2020):
Values joined by “and” are separate entries in the source; they are usually repeats but may differ in a detail not shown here. Equal values may be shown once. Read-outs that look alike come from different tables or passages of the source.

Experiments:
[1] = test system: Klebsiella pneumoniae (KPN) isolates; test: MIC of compounds alone and combined with antibacterials, broth microdilution (CLSI); assay type: cell-based; details: for MIC ATB in combination: AF1 @ 4 μg/mL
Experimental: (§1) Method 2: MIC of Compounds Alone and Combined with Antibacterials Against Bacterial Isolates.
(§2) Compounds of the present invention were assessed against genotyped bacterial strains (Table 3, 4) alone or in combination with an antibacterial (Table 2). […] Log phase bacterial suspensions were adjusted to a final density of 5·10^5 CFU/mL in cation-adjusted Mueller-Hinton broth (ca-MHB; Becton-Dickinson and Company) and added to each well (98 μL). Microplates were incubated for 16-20 h at 35° C. in ambient air. The MIC of the compounds was defined as the lowest concentration of said compounds that prevented bacterial growth as read by visual inspection. The MIC of ATB at each compound concentration was defined as the lowest concentration of ATB that prevented bacterial growth as read by visual inspection.

[2] = test system: Morganella morganii (MMO) isolates; test: as above; assay type: cell-based; details: for MIC: Morganella morganii
Experimental: as §1, §2

## CC1(C)S[C@@H]2[C@H](NC(=O)[C@H](N)c3ccc(O)cc3)C(=O)N2[C@H]1C(=O)O [AMX, Amoxicillin]
[1]
  MIC: >128 µg/mL and 128 µg/mL
[1]; KPN 6299
  MIC ATB in combination: 256 µg/mL
[1]; KPN 131119
  MIC ATB in combination: 256 µg/mL
[1]; KPN 140513
  MIC ATB in combination: >512 µg/mL
[1]; KPN 190270
  MIC ATB in combination: 16 µg/mL
[1]; KPN 190551
  MIC ATB in combination: 64 µg/mL
[1]; KPN 200047
  MIC ATB in combination: 16 µg/mL
[1]; KPN 200327
  MIC ATB in combination: 32 µg/mL
[1]; KPN 260252
  MIC ATB in combination: 256 µg/mL
[1]; KPN 260376
  MIC ATB in combination: 32 µg/mL
[1]; KPN 270077
  MIC ATB in combination: 4 µg/mL
[1]; KPN 700603
  MIC ATB in combination: 4 µg/mL
[1]; KPN ARA
  MIC ATB in combination: 256 µg/mL
[1]; KPN BAA-1898
  MIC ATB in combination: 256 µg/mL
[1]; KPN LIB
  MIC ATB in combination: 16 µg/mL
[1]; KPN UFR22_O
  MIC ATB in combination: 64 µg/mL
[1]; KPN UFR23
  MIC ATB in combination: 32 µg/mL
[1]; KPN UFR24
  MIC ATB in combination: 64 µg/mL
[1]; KPN UFR25
  MIC ATB in combination: 512 µg/mL
[1]; KPN UFR65
  MIC ATB in combination: 256 µg/mL
[1]; KPN UFR66
  MIC ATB in combination: 256 µg/mL
[1]; KPN UFR67
  MIC ATB in combination: 256 µg/mL
[1]; KPN UFR68
  MIC ATB in combination: 256 µg/mL
[1]; KPN UFR76
  MIC ATB in combination: >512 µg/mL
[1]; KPN UFR77
  MIC ATB in combination: 64 µg/mL
[1]; KPN UFR78
  MIC ATB in combination: >512 µg/mL
[1]; KPN UFR79
  MIC ATB in combination: >512 µg/mL
[1]; KPN UFR81
  MIC ATB in combination: >512 µg/mL
[1]; KPN UFR215
  MIC ATB in combination: 64 µg/mL
[1]; KPN UFR216
  MIC ATB in combination: 32 µg/mL
[1]; KPN UFR217
  MIC ATB in combination: 64 µg/mL
[1]; KPN UFR220
  MIC ATB in combination: 512 µg/mL
[1]; KPN UFR221
  MIC ATB in combination: 256 µg/mL
[1]; KPN UFR222
  MIC ATB in combination: >512 µg/mL
[1]; KPN UFR227O
  MIC ATB in combination: 512 µg/mL
[1]; Klebsiella pneumoniae
  MIC: > 256 µg/mL
[1]; Klebsiella pneumoniae, BAA1898, strain KPN BAA-1898 (TEM-1, SHV-11, SHV-12, KPC-2), ATB alone, read-out: MIC
  MIC: > 1020 µg/mL
[1]; Klebsiella pneumoniae, BAA1898, strain KPN BAA-1898 (TEM-1, SHV-11, SHV-12, KPC-2), CLA @ 4 μg/ml+ ATB, read-out: MIC
  MIC: > 512 µg/mL
[1]; Klebsiella pneumoniae, strain KPN 6299 (TEM-1, SHV-11, OXA-163), ATB alone, read-out: MIC
  MIC: > 1020 µg/mL
[1]; Klebsiella pneumoniae, strain KPN 6299 (TEM-1, SHV-11, OXA-163), CLA @ 4 μg/ml+ ATB, read-out: MIC
  MIC: > 512 µg/mL
[1]; Klebsiella pneumoniae, strain KPN 131119 (TEM-1, SHV-11, CTX-M-15, OXA-1, OXA-48), CLA @ 4 μg/ml+ ATB, read-out: MIC
  MIC: > 512 µg/mL
[1]; Klebsiella pneumoniae, strain KPN 200047 (TEM-1, SHV-32, CTX-M-15, OXA-1), CLA @ 4 μg/ml+ ATB, read-out: MIC
  MIC: 32 µg/mL
[1]; Klebsiella pneumoniae, strain KPN 200327 (TEM-1, SHV-1, CTX-M-15, OXA-1), CLA @ 4 μg/ml+ ATB, read-out: MIC
  MIC: 32 µg/mL
[1]; Klebsiella pneumoniae, strain KPN 270077 (TEM-1, SHV-1, CTX-M-15), CLA @ 4 μg/ml+ ATB, read-out: MIC
  MIC: 32 µg/mL
[1]; Klebsiella pneumoniae, strain KPN 700603 (SHV-18, OXA-2), CLA @ 4 μg/ml+ ATB, read-out: MIC
  MIC: 8 µg/mL
[1]; Klebsiella pneumoniae, strain KPN LIB (SHV-11, OXA-48), CLA @ 4 μg/ml+ ATB, read-out: MIC
  MIC: > 512 µg/mL
[1]; Klebsiella pneumoniae, strain KPN UFR68 (TEM-1, SHV-11, CTX-M-15, KPC-3), ATB alone, read-out: MIC
  MIC: > 1020 µg/mL
[2]
  MIC ATB in combination: 128 µg/mL
  MIC: > 128 µg/mL
[2]; MMO 200321, AF1 @ 4 μg/mL
  MIC ATB in combination: 256 µg/mL
[2]; MMO UFR240, AF1 @ 4 μg/mL
  MIC ATB in combination: 32 µg/mL
[2]; MMO UFR243, AF1 @ 4 μg/mL
  MIC ATB in combination: 64 µg/mL
[2]; MMO UFR244, AF1 @ 4 μg/mL
  MIC ATB in combination: 64 µg/mL
[2]; MMO UFR245, AF1 @ 4 μg/mL
  MIC ATB in combination: 64 µg/mL
[2]; MMO UFR246, AF1 @ 4 μg/mL
  MIC ATB in combination: 64 µg/mL
[2]; MMO UFR247, AF1 @ 4 μg/mL
  MIC ATB in combination: 32 µg/mL
[2]; strain MMO 200321 (TEM-1, CTX-M-15, OXA-1), ATB alone
  MIC: > 256 µg/mL
